Data from US5104870A, “Heterocyclic pharmaceutical compounds and use” (Burroughs Wellcome Co., priority 1989, dated 1992).
Counter-ions that a name gives are not always drawn.

tested on: tetrabenazine-induced sedation; assay: Antitetrabenazine test (prevention of tetrabenazine-induced sedation); assay type: in vivo; conditions: Mus musculus, ip; CDl male mice; i.p. as hydrochloride salt in saline 30 min before tetrabenazine hydrochloride 35 mg/kg i.p.; exploratory behavior scored 30 min later; read-out: ED50 (amount of the test compound required to reverse the tetrabenazine effects in 50 percent of the animals tested)
Method: Prevention on of tetrabenazine-induced sedation was measured using a modification of the method of Vernier et al., First Hahnemann Symposium on Psychosomatic Medicine, ed. Nodim and Moyer, pub Lea and Febiger, Philadelphia. 1962.
Mice, groups of 12 CDl males each, were injected intraperitoneally (i.p.) with the hydrochloride salt of a compound of formula (I) in physiological saline solution or with physiological saline solution alone. Thirty minutes later each of the mice was injected (i.p.. 35 mg/kg) with a solution of tetrabenazine hydrochloride. Thirty minutes after the injection of tetrabenazine each mouse was examined for its level of exploratory behavior which was scored on a modification of the arbitrary scale defined by Vernier et al The result reported in Table I as the ED50 value is the amount of the test compound required to reverse the tetrabenazine effects in 50 percent of the animals tested.

Row | Structure (SMILES) | ED50 [mg/kg]
1 | C[C@@H]1CO[C@@](O)(c2cc(F)cc(F)c2)[C@H](C)N1C (relative stereo) [Example 4, (+-)-(2R*,3R*,5S*)-2-(3,5-Difluorophenyl)-3,4,5,trimethyl-2-morpholinol hydrochloride] | 3
2 | C[C@@H]1CO[C@@](O)(c2cc(F)cc(F)c2)[C@H](C)N1.Cl [Example 2, (2S,3S,5R)-2-(3,5-difluorophenyl)-3,5-dimethyl-2-morpholinol hydrochloride] | 5
3 | C[C@@H]1CO[C@@](O)(c2cc(F)cc(F)c2)[C@H](C)N1C [Example 3, (2S,3S,5R)-2-(3.5.Difluorophenyl)-3,4,5,trimethyl-2-morpholinol hydrochloride, one-quarter hydrate] | 0.6
4 | C[C@H]1CO[C@](O)(c2cc(F)cc(F)c2)[C@@H](C)N1.Cl (relative stereo) [Example 1, (+-)-(2R*,3R*,5S*)-2-(3,5-Difluorophenyl)-3,5-dimethyl-2-morpholinol hydrochloride] | 2
5 | CCN1[C@H](C)CO[C@@](O)(c2cc(F)cc(F)c2)[C@@H]1C [Example 5, (2S,3S,5R)-2-(3,5-Difluorophenyl)-4-ethyl-3,5-dimethyl-2-morpholinol hydrochloride, monohydrate] | 3
